Source: patent publication US20060258589A1, “Methods for enhancing radiation therapy” (IGF Oncology, LLC, priority 2004, published 2006)

What was measured:
[1] = test system: LnCap, MiaPaCa, H226, and A549 tumors; assay: In vivo assays: growth of tumor volume after irradiation of subcutaneous tumors in nude mice; conditions: male nude mice; treated 30 minutes before 15 Gy X-rays; followed for 3 weeks
Procedure: LnCap, MiaPaCa, H226, and A549 cells are grown in culture. Cells are harvested using 0.25% trypsin, washed, suspended in Dulbecco's PBS, and counted. 1×10^6 cells are injected subcutaneously into the hind thigh of male nude mice. Tumors are grown to 250 mm^3 in ˜21 days. Tumors are measured with a caliper, and the tumor size is calculated by the formula a^2b/2, where a and b are the shorter and longer diameters of the tumor, respectively. When the tumors reach 250 mm^3, the mice are treated with insulin (5 or 40 μg/kg), IGF-1 (5 or 100 μg/kg) or insulin+glucose (5 g glucose/kg), or growth hormone (50 or 500 μg/kg), or saline control 30 minutes before radiation treatment. The mice are anesthetized immediately before radiation treatment, and then the tumor-bearing leg is irradiated with X-rays at 1.4 Gy/minute, receiving a dose of 15 Gy. The growth of tumor volume in the mice after irradiation is followed for 3 weeks.

[2] = test system: MiaPaCa, LnCap, H226 and A549 cells; assay: In vitro assays: surviving fraction (colony formation) of cancer cells after X-ray irradiation; type: cell-based, human; conditions: hormone added before 200 rads X-rays; for sensitization to radiation: exponential phase cells; for cell killing by radiation: plateau-phase cells, at least some concentrations and times
Procedure: MiaPaCa (a human pancreatic cancer cell line), LnCap (a human prostate cancer cell line), H226 and A549 (two human lung cancer cell lines) are grown in monolayer cultures in McCoy's 5A medium containing 10% fetal bovine serum and buffered with 2.0 g/L sodium bicarbonate and 0.02 M Hepes, pH 7.4. The cells are at seeded at 6×10^4 cells per T30 flask. On day 3 the medium is changed. The cells are irradiated at either 4 days (exponential cells) or 7 days (plateau-phase cells). Twenty minutes before, 2 hours before, or immediately before irradiation, insulin (0.01, 0.1, or 1 μg/ml) or IGF-1 (3, 20, or 150 ng/ml) is added to the medium. Control cells have no added hormone. The cells are then irradiated with 200 rads X-rays. After irradiation, the cells are allowed to recover in the used medium for 60 minutes.
The cells are then typsinized and plated in fresh medium. The surviving fraction of a specific number of plated cells is determined by staining colonies with methylene blue after 7-10 days of growth.
Exponential-phase and plateau-phase cells are then treated with insulin and IGF-1 separately and together at their experimentally determined optimal concentrations immediately before, 15 minutes before, and 2 hours before irradiation with a range of radiation doses. Again, the cells are trypsinized and plated, and the percent surviving is determined.
Exponential- and plateau-phase cells are then treated with insulin at the optimal concentration in combination with 30 mM glucose.

[3] = another study; cited from earlier work
breast cancer cells = conditions: tissue culture; methotrexate killing; cited from earlier work
cancer cells = conditions: Ciftci 2003; cited from earlier work
[4] = test system: soluble IGF-1 binding proteins; conditions: compared to native IGF-1; Francis 1992, Tomas 1993; cited from earlier work

growth hormone
effectiveness of radiation therapy (growth of tumor volume) [1]: enhance the effectiveness of radiation therapy

insulin
effectiveness of radiation therapy (growth of tumor volume) [1]: enhance the effectiveness of radiation therapy | sensitization to radiation [2]: sensitized to radiation | cell killing by radiation [2]: increase cell killing by radiation | enhancement of uptake of methotrexate [3]: 2 factor | enhancement of the killing of breast cancer cells (breast cancer cells): up to 10,000 fold

insulin-like growth factor-1 [IGF-1]
effectiveness of radiation therapy (growth of tumor volume) [1]: enhance the effectiveness of radiation therapy | sensitization to radiation [2]: sensitized to radiation | cell killing by radiation [2]: increase cell killing by radiation | proportion of cells in the G2 and M phases of the cell cycle (cancer cells): moves a greater proportion of the cells into the G2 and M phases

B1: LONG-R3-IGF-1: variant IGF-1 with reduced binding affinity for the soluble IGF-1 binding proteins (SEQ ID NO:1) (protein)
chain: MFPAMPLSSLFVNGPRTLCGAELVDALQFVCGDRGFYFNKPTGYSSSRRAPQTGIVDECCFRSCDLRRLEMYCAPLKPAKSA
modifications: LONG-R3-IGF-1 synthetic variant of IGF-1
binding affinity for the soluble IGF-1 binding proteins [4]: reduced binding affinity
